pIC50: −log10 of the molar value. Read-outs that look alike come from different tables or passages of the source. Positions of bridges follow the written chain, without caps; N, C: chain ends. Non-standard residues stand in square brackets, D forms with d. Residues, ends and D or L forms follow the SMILES beside them. ξ: configuration not given here. Ala(indol-4-yl) = N[C@@H](Cc1cccc2[nH]ccc12)C(=O)O; Phe(3,5-F2) = N[C@@H](Cc1cc(F)cc(F)c1)C(=O)O; Trp(1-Me) = Cn1cc(C[C@H](N)C(=O)O)c2ccccc21; Bta = N[C@@H](Cc1csc2ccccc12)C(=O)O; Hyp = O=C(O)[C@@H]1C[C@@H](O)CN1; NMeF = CN[C@@H](Cc1ccccc1)C(=O)O; dNMeNle = CCCC[C@@H](NC)C(=O)O; NMehSer = CN[C@@H](CCO)C(=O)O; NMeNle = CCCC[C@H](NC)C(=O)O; Pen = CC(C)(S)[C@H](N)C(=O)O; NMeA = CN[C@@H](C)C(=O)O; dDap = NC[C@@H](N)C(=O)O; Dab = NCC[C@H](N)C(=O)O; Dap = NC[C@H](N)C(=O)O; ξP = O=C(O)C1CCCN1; ξC = NC(CS)C(=O)O; Sar = CNCC(=O)O
How the values were obtained:
Human PD-L1/PD-1 = target: T1, Human PD-L1/PD-1 (Homo sapiens, UniProt Q9NZQ7); assay: HTRF PD-1-Ig/PD-L1-His binding assay (human PD-L1)
T1 construct: made in house; host or cells: HEK293T
In short: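 The time-resolved fluorescence signal comes from Eu-cryptate anti-Ig (1 nM) and APC anti-His (20 nM) antibodies bound to a PD-1-Ig/PD-L1-His complex. Both partners lack transmembrane regions.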

[1] = target: T2, LK35.2-hPD-L1 cells / PE-labeled PD-1-Ig (Homo sapiens, UniProt Q9NZQ7); assay: LK35.2-hPD-L1 cell binding high-content screening assay; format: cell-based
T2 construct: expressed in transfected cells; host or cells: LK35.2 mouse B cell line
In short: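 Mouse LK35.2 B cells stably over-expressing human PD-L1, cultured overnight, treated with compound plus PE-labeled human PD-1-Ig (1 nM final) in RPMI/10% FCS for 1 h at 37 °C. After washing, bound fluorescence quantified by high-content imaging.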

[2] = cluster symbol, read-out: HTRF IC50 cluster
[3] = cell binding assay, cell line not given, cluster symbol, read-out: CBA IC50 cluster
[4] = cluster symbol, cell line of CBA not given (LK35.2-hPD-L1 or 293T-hPD-L1), read-out: CBA IC50 cluster

T1 sequence (Q9NZQ7 with tags, fused parts or gaps): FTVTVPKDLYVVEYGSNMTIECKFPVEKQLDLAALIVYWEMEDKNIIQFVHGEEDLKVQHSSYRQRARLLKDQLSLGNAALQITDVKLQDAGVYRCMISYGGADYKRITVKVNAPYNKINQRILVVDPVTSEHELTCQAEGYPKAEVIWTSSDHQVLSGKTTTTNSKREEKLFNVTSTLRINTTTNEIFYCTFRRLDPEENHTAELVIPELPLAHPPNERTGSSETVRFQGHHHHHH
T2 sequence (Q9NZQ7 19-290): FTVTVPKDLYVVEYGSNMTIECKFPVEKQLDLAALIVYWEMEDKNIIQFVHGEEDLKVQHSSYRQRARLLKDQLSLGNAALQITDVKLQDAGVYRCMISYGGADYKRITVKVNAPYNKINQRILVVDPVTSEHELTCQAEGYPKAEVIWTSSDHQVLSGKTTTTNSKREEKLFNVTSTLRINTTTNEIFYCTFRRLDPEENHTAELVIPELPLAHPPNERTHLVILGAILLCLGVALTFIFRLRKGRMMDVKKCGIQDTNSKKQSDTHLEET

| Compound | pIC50 (Human PD-L1/PD-1; [2]) | pIC50 [1, 3] | pIC50 [1, 4] | pIC50 (Human PD-L1/PD-1; HTRF IC50 value, value given instead of cluster) | pIC50 ([1]; CBA IC50 value, cell binding assay, cell line not given, value given instead of cluster) |
| --- | --- | --- | --- | --- | --- |
| CCCC[C@H]1C(=O)N(C)[C@@H](C)C(=O)N[C@@H](CCCNC(=N)N)C(=O)NC(C(=O)NCC(N)=O)CSCC(=O)N[C@@H](Cc2ccc(O)cc2)C(=O)N(C)[C@@H](C)C(=O)N[C@@H](CC(N)=O)C(=O)N2CCC[C@H]2C(=O)N[C@@H](Cc2cnc[nH]2)C(=O)N[C@@H](CC(C)C)C(=O)N2CCC[C@H]2C(=O)N[C@@H](Cc2c[nH]c3ccccc23)C(=O)N[C@@H](CO)C(=O)N[C@@H](Cc2csc3ccccc23)C(=O)N1C (stereo partly shown) [Example 9053] ({CH2CO}-Y[NMeA]NPHLPWS[Bta][NMeNle][NMeA]R[ξC]G-NH2; thioether N-14) | 7.52 to 8.17 | 7.14 to 8.32 | – | – | – |
| CCCCC1C(=O)N[C@@H](CCC(=O)O)C(=O)N[C@@H](CC(=O)O)C(=O)N[C@@H](C(C)C)C(=O)N(C)[C@@H](Cc2ccccc2)C(=O)N[C@@H](Cc2ccc(O)cc2)C(=O)N(C)CC(=O)N[C@@H](Cc2c[nH]c3ccccc23)C(=O)N[C@@H](Cc2ccc(O)cc2)C(=O)N[C@@H](CC(C)C)C(=O)N[C@H](C(=O)NCC(N)=O)CSCC(=O)N[C@@H](Cc2ccccc2)C(=O)N(C)[C@@H](Cc2ccccc2)C(=O)N1C (stereo partly shown) [Example 3500] (HELM PEPTIDE1{[O=C(C[*:3])[*:2]].F.[meF].[CCCCC(C(=O)[*:2])N(C)[*:1]].E.D.V.[meF].Y.[Sar].W.Y.L.C.G.[am]}$PEPTIDE1,PEPTIDE1,1:R3-14:R3$$$V2.0) | < 7.52 | < 7.13 | – | – | – |
| CCCC[C@H]1C(=O)N(C)CC(=O)N[C@@H](CC(=O)O)C(=O)N[C@@H](C(C)C)C(=O)N(C)[C@@H](Cc2ccccc2)C(=O)N[C@@H](Cc2ccc(O)cc2)C(=O)N(C)CC(=O)N[C@@H](Cc2cccc3[nH]ccc23)C(=O)N[C@@H](Cc2ccc(O)cc2)C(=O)N[C@@H](CC(C)C)C(=O)N[C@H](C(=O)NCC(N)=O)CSCC(=O)N[C@@H](Cc2ccccc2)C(=O)N(C)[C@@H](Cc2ccccc2)C(=O)N1C [Example 3071] ({CH2CO}-F[NMeF][NMeNle][Sar]DV[NMeF]Y[Sar][Ala(indol-4-yl)]YLCG-NH2; thioether N-13) | 7.52 to 8.17 | – | 7.14 to 8.32 | – | – |
| CCCC[C@H]1C(=O)N(C)[C@@H](CCOC)C(=O)N[C@@H](CCCNC(=N)N)C(=O)N[C@H](C(=O)NCC(N)=O)CSCC(=O)N[C@@H](Cc2ccc(O)cc2)C(=O)N(C)[C@@H](C)C(=O)N[C@@H](CC(=O)O)C(=O)N2CCC[C@H]2C(=O)N[C@@H](Cc2cnc[nH]2)C(=O)N[C@@H](CC(C)C)C(=O)N2CCC[C@@H]2C(=O)N[C@@H](Cc2c[nH]c3ccccc23)C(=O)N[C@@H](CO)C(=O)N[C@@H](Cc2c[nH]c3ccccc23)C(=O)N1C [Example 9005] ({CH2CO}-Y[NMeA]DPHL[dP]WSW[NMeNle][NMehSer](Me)RCG-NH2; thioether N-14) | 8.17 to 9.41 | 8.33 to 9.80 | – | – | – |
| CCCC[C@H]1C(=O)N(C)[C@@H](CCCC)C(=O)N[C@@H](C)C(=O)N[C@H](C(=O)NCC(N)=O)CSCC(=O)N[C@@H](Cc2ccc(O)cc2)C(=O)N(C)[C@@H](C)C(=O)N[C@@H](CC(=O)O)C(=O)N2CCC[C@H]2C(=O)N[C@@H](CCN)C(=O)N[C@@H](CC(C)C)C(=O)N2C[C@H](O)C[C@H]2C(=O)N[C@@H](Cc2c[nH]c3ccccc23)C(=O)N[C@@H](CO)C(=O)N[C@@H](Cc2c[nH]c3ccccc23)C(=O)N1C [Example 1158] ({CH2CO}-Y[NMeA]DP[Dab]L[Hyp]WSW[NMeNle][NMeNle]ACG-NH2; thioether N-14) | 8.17 to 9.41 | – | 8.33 to 9.80 | – | – |
| CCCC[C@H]1C(=O)N(C)CC(=O)N[C@@H](CC(=O)O)C(=O)N[C@@H](C(C)C)C(=O)N(C)[C@@H](Cc2ccccc2)C(=O)N[C@@H](Cc2ccc(O)cc2)C(=O)N(C)CC(=O)N[C@@H](Cc2c[nH]c3ccccc23)C(=O)N[C@@H](Cc2ccc(O)cc2)C(=O)N[C@@H](CC(C)C)C(=O)N[C@H](C(=O)NCC(N)=O)CSCC(=O)N[C@@H](Cc2cc(F)cc(F)c2)C(=O)N(C)[C@@H](Cc2ccccc2)C(=O)N1C [Example 3143] ({CH2CO}-[Phe(3,5-F2)][NMeF][NMeNle][Sar]DV[NMeF]Y[Sar]WYLCG-NH2; thioether N-13) | 7.52 to 8.17 | – | 8.33 to 9.80 | – | – |
| CCCC[C@H]1C(=O)N(C)[C@@H](CCCC)C(=O)N[C@@H](CC(C)C)C(=O)N[C@H](C(=O)NCC(N)=O)CSCC(=O)N[C@@H](Cc2ccc(O)cc2)C(=O)N(C)[C@@H](C)C(=O)N[C@@H](CC(N)=O)C(=O)N2CCC[C@H]2C(=O)N[C@@H](Cc2c[nH]cn2)C(=O)N[C@@H](CCC(N)=O)C(=O)N2C[C@H](O)C[C@H]2C(=O)N[C@@H](Cc2c[nH]c3ccccc23)C(=O)N[C@@H](CO)C(=O)N[C@@H](Cc2c[nH]c3ccccc23)C(=O)N1C [Example 5075] ({CH2CO}-Y[NMeA]NPHQ[Hyp]WSW[NMeNle][NMeNle]LCG-NH2; thioether N-14) | 8.17 to 9.41 | 8.33 to 9.80 | – | – | – |
| CCCC[C@H]1C(=O)N(C)[C@@H](CCCC)C(=O)N[C@@H](CO)C(=O)N[C@H](C(=O)NCC(N)=O)CSCC(=O)N[C@@H](Cc2ccc(O)cc2)C(=O)N(C)[C@@H](C)C(=O)N[C@@H](CC(N)=O)C(=O)N2CCC[C@H]2C(=O)N[C@@H](CO)C(=O)N[C@@H](CCC(N)=O)C(=O)N2C[C@H](O)C[C@H]2C(=O)N[C@@H](Cc2c[nH]c3ccccc23)C(=O)N[C@@H](CO)C(=O)N[C@@H](Cc2c[nH]c3ccccc23)C(=O)N1C [Example 5128] ({CH2CO}-Y[NMeA]NPSQ[Hyp]WSW[NMeNle][NMeNle]SCG-NH2; thioether N-14) | 8.17 to 9.41 | 8.33 to 9.80 | – | – | – |
| CCCC[C@H]1C(=O)N(C)CC(=O)N[C@@H](CC(=O)O)C(=O)N[C@@H](C(C)C)C(=O)N(C)[C@@H](Cc2ccccc2)C(=O)N[C@@H](CCC(=O)O)C(=O)N(C)CC(=O)N[C@@H](Cc2c[nH]c3ccccc23)C(=O)N[C@@H](Cc2ccc(O)cc2)C(=O)N[C@@H](CCCNC(=N)N)C(=O)N[C@H](C(=O)NCC(N)=O)CSCC(=O)N[C@@H](Cc2ccccc2)C(=O)N(C)[C@@H](Cc2ccccc2)C(=O)N1C [Example 3559] (HELM PEPTIDE1{[O=C(C[*:3])[*:2]].F.[meF].[CCCC[C@@H](C(=O)[*:2])N(C)[*:1]].[Sar].D.V.[meF].E.[Sar].W.Y.R.C.G.[am]}$PEPTIDE1,PEPTIDE1,1:R3-14:R3$$$V2.0) | – | – | – | 7.92 | 7.32 |
| CCCC[C@@H]1C(=O)N(C)[C@H](CCCC)C(=O)N[C@@H](CN)C(=O)N[C@@H](C(=O)NCC(N)=O)CSCC(=O)N[C@@H](Cc2ccc(O)cc2)C(=O)N2CCCC2C(=O)N[C@H](CC(=O)O)C(=O)N2CCC[C@H]2C(=O)N[C@H](CN)C(=O)N[C@@H](CCC(N)=O)C(=O)N2CCCC2C(=O)N[C@H](Cc2c[nH]c3ccccc23)C(=O)N[C@@H](CCN)C(=O)N[C@@H](Cc2c[nH]c3ccccc23)C(=O)N1C (stereo partly shown) [Example 1213] ({CH2CO}-Y[ξP][dD]P[dDap]Q[ξP][dW][Dab]W[dNMeNle][dNMeNle][Dap][dC]G-NH2; thioether N-14) | 7.52 to 8.17 | – | 7.14 to 8.32 | – | – |
| CCCC[C@H]1C(=O)N(C)[C@@H](CCCC)C(=O)N[C@@H](CCCNC(=N)N)C(=O)N[C@H](C(=O)NCC(N)=O)CSCC(=O)N[C@@H](Cc2ccc(O)cc2)C(=O)N(C)[C@@H](C)C(=O)N[C@@H](CC(N)=O)C(=O)N2CCC[C@H]2C(=O)N[C@@H](Cc2cnc[nH]2)C(=O)N[C@@H](CC(C)C)C(=O)N2CCC[C@H]2C(=O)N[C@@H](Cc2c[nH]c3ccccc23)C(=O)N[C@@H](CO)C(=O)N[C@@H](Cc2cn(C)c3ccccc23)C(=O)N1C [Example 1130] ({CH2CO}-Y[NMeA]NPHLPWS[Trp(1-Me)][NMeNle][NMeNle]RCG-NH2; thioether N-14) | < 7.52 | – | 8.33 to 9.80 | – | – |
| CCCC[C@H]1C(=O)N(C)[C@@H](CCCC)C(=O)N[C@@H](CCCNC(=N)N)C(=O)N[C@H](C(=O)NCC(N)=O)CSCC(=O)N[C@@H](Cc2ccccc2)C(=O)N(C)[C@@H](C)C(=O)N[C@@H](CC(N)=O)C(=O)N2CCC[C@H]2C(=O)N[C@@H](Cc2cnc[nH]2)C(=O)NCC(=O)N(C)CC(=O)N[C@@H](Cc2c[nH]c3ccccc23)C(=O)N[C@@H](CO)C(=O)N[C@@H](Cc2c[nH]c3ccccc23)C(=O)N1C [Example 1053] ({CH2CO}-F[NMeA]NPHG[Sar]WSW[NMeNle][NMeNle]RCG-NH2; thioether N-14) | < 7.52 | – | < 7.13 | – | – |
| CCCC[C@H]1C(=O)N(C)[C@@H](CCCC)C(=O)N[C@@H](CCCNC(=N)N)C(=O)N[C@H](C(=O)NCC(N)=O)C(C)(C)SCC(=O)N[C@@H](Cc2ccccc2)C(=O)N(C)[C@@H](C)C(=O)N[C@@H](CC(N)=O)C(=O)N2CCC[C@H]2C(=O)N[C@@H](Cc2cnc[nH]2)C(=O)N[C@@H](CC(C)C)C(=O)N(C)CC(=O)N[C@@H](Cc2c[nH]c3ccccc23)C(=O)N[C@@H](CO)C(=O)N[C@@H](Cc2c[nH]c3ccccc23)C(=O)N1C [Example 1083] ({CH2CO}-F[NMeA]NPHL[Sar]WSW[NMeNle][NMeNle]R[Pen]G-NH2; thioether N-14) | 8.17 to 9.41 | – | 7.14 to 8.32 | – | – |
| CCCC[C@H]1C(=O)N(C)CC(=O)N[C@@H](CC(=O)O)C(=O)N[C@@H](COC)C(=O)N(C)[C@@H](Cc2ccccc2)C(=O)N[C@@H](Cc2ccc(O)cc2)C(=O)N(C)CC(=O)N[C@@H](Cc2c[nH]c3ccccc23)C(=O)N[C@@H](Cc2ccc(O)cc2)C(=O)N[C@@H](CC(C)C)C(=O)N[C@H](C(=O)NCC(N)=O)CSCC(=O)N[C@@H](Cc2ccccc2)C(=O)N(C)[C@@H](Cc2ccccc2)C(=O)N1C [Example 3155] ({CH2CO}-F[NMeF][NMeNle][Sar]DS(Me)[NMeF]Y[Sar]WYLCG-NH2; thioether N-13) | < 7.52 | – | < 7.13 | – | – |

Reference: patent US9850283B2, “Macrocyclic inhibitors of the PD-1/PD-L1 and CD80(B7-1)/PD-L1 protein/protein interactions” (BRISTOL-MYERS SQUIBB COMPANY, priority 2013, dated 2017)
